Experimental data from patent US8946201B2, “Methods for inhibiting TGF-β” (Saint Louis University, priority 2007, dated 2015).

Legend:
TβR-I and TβR-II = assay: 125I-TGF-β1 affinity labeling, Mv1Lu cells; assay type: cell-based, mink; conditions: for effect on the LDL- or cholesterol-induced increase of 125I-TGF-β1 binding to TβR-I: co-treatment, β-CD 8 mM, nystatin 25 μg/ml, cholest-4-en-3-one 50 μg/ml (FIG. 4B, C)
Method: (A) Mv1Lu cells were treated with 50 μg/ml cholesterol at 37° C. After several time periods, as indicated, ^125I-TGF-β1-affinity labeling was performed at 0° C. ^125I-TGF-β1 affinity-labeled TGF-β receptors were analyzed by 7.5% SDS-PAGE and autoradiography (a) and quantified with a PhosphoImager. The bracket indicates the locations of ^125I-TGF-β1 affinity-labeled TβR-I and TβR-II. The ratio of ^125I-TGF-β1 binding to TβR-II and TβR-I is plotted against incubation time (b).
(B, C, D, E) Cells were treated with increasing concentrations of cholesterol in the presence (C) and absence (B, D, E) of 0.2% β-CD, as indicated. After 1 hr at 37° C., ^125I-TGF-β1 affinity labeling of TβR-I and TβR-II in cells was performed at 0° C. ^125I-TGF-β1 affinity-labeled TβR-I and TβR-II were analyzed by 7.5% SDS-PAGE and autoradiography or quantified with a PhosphoImager. A representative of a total of three analyses is shown (top). The bracket indicates the locations of ^125I-TGF-β affinity-labeled TβR-I and TβR-II. The relative intensities of ^125I-TGF-β1 affinity-labeled TβR-I and TβR-II in cells treated without cholesterol were taken as 100%. The quantitative data from three analyses is shown (bottom).
The bracket indicates the locations of ^125I-TGF-β1 affinity-labeled TβR-I and TβR-II. The relative intensities of ^125I-TGF-β1-TβR-I and ^125I-TGF-β1-TβR-II complexes, which were quantified with a PhosphoImager, are plotted against TGF-β1 concentrations (bottom).
(A, B, C, D, E, F) Cells were treated with LDL (50 μg protein/ml), VLDL (5 μg protein/ml), HDL (50 μg protein/ml), lipoprotein (a) (10 μg/ml), fluvastatin (F; 1 μM), lovastatin (L; 1 μM), nystatin (Nys; 25 μg/ml), β-CD (β-CD; 8 mM), cholest-4-en-3-one (3-one; 50 μg/ml) or cholesterol (Chol; 50 μg/ml) alone or combination of two. After 1 hr at 37° C. or 16 hr at 37° C. (for fluvastatin and lovastatin), ^125I-TGF-β1 affinity labeling of cell-surface TGF-β receptors was performed at 0° C. ^125I-TGF-β1 affinity-labeled TβR-I and TβR-II were analyzed by 7.5% SDS-PAGE and autoradiography. The relative intensities of TβR-I and TβR-II were quantified with a PhosphoImager. The ratio of ^125I-TGF-β1 binding to TβR-II and TβR-I were estimated. The numbers above the lane sequence denote the ratio of TβR-II/TβR-I.
(G) Mv1Lu cells were treated with 50 μg/ml of cholesterol and cholesterol analogs/derivatives including 25-hydroxycholesterol, 7-dehydrocholesterol (7-DHC), 7-ketocholesterol, 7β, 8β-epoxycholesterol, 7β-hydroxycholesterol, and oxidized 7-dehydrocholesterol (oxy-7DHC). After 1 hr at 37° C., ^125I-TGF-β1 affinity labeling of TGF-β receptors was performed. ^125I-TGF-β1 affinity-labeled TβR-I and TβR-II were analyzed by 7.5% SDS-PAGE and autoradiography. The bracket indicates the locations of ^125I-TGF-β1-affinity-labeled TβR-I and TβR-II. The relative intensities of ^125I-TGF-β1 affinity-labeled TβR-I and TβR-II were determined by a PhosphoImager. The ratios of ^125I-TGF-β1 binding to TβR-II and TβR-I were estimated. The numbers above the lane sequence denote the ratio of TβR-II/TβR-I.
After cross-linking, cell lysates were analyzed by 7.5% SDS-PAGE and autoradiography or quantified by a PhosphoImager. For all experiments, cholesterol or cholesterol derivatives were prepared as the stock solution with a concentration of 25 mg/ml in ethanol. The final concentration of ethanol in the medium was 0.2% (by vol.).

TβR-II = assay: TGF-β1-induced degradation of TβR-II, Western blot; assay type: cell-based; conditions: 1% β-CD
Method: (E) Cells were treated with several concentrations of cholesterol (a,b) or LDL (c,d) as indicated in the presence and absence of 1% β-CD at 37° C. for 1 hr and further incubated with 50 pM TGF-β for 1 hr. The cell lysates were then subjected to 7.5% SDS-PAGE and Western blot analysis using antibodies to TβR-II and α-actin (a,c). The relative intensities of TβR-II and α-actin on the blot were quantified by densitometry (b,d). The ratio of the relative intensities of TβR-II and α-actin in cells treated without TGF-β1 was taken as the 100% level of TβR-II.
(F, G) Cells were treated with or without 1 μM lovastatin/fluvastatin or nystatin (25 μg/ml)/cholesterol (50 μg/ml) at 37° C. for 16 hr or 1 hr, respectively. The treated cells were directly analyzed by sucrose density gradient ultracentrifugation analysis (F) or further incubated with 50 pM TGF-β at 37° C. for several time periods as indicated (G). Western blot analysis of the sucrose density gradient fractions (F) and of TGF-β1-treated cell lysates (G) was performed using antibody to TβR-II. The relative levels of TβR-II and α-actin were quantified by densitometry. Fractions ⅘ and 7 represent lipid raft/caveolae and non-lipid raft fractions, respectively. […] The quantitative data from three independent analyses is shown (G, bottom). […]
Cells grown to near confluence on 12-well cluster dishes were treated with cholesterol or LDL in serum-free DMEM (vol.=0.5 ml/well) at 37° C. for 1 hr. […] Treated cells were lysed and cell lysates were analyzed by 7.5% SDS-PAGE and Western blot analysis using anti-Smad2, anti-P-Smad2, anti-caveolin-1, anti-TβR-I (alk5) or anti-TβR-II antibodies as described previously (30). […]
Lipid raft/caveolae-mediated endocytosis of receptor-bound TGF-β results in rapid degradation of TGF-β1 and suppression of TGF-β responsiveness. […] To test this, we analyzed the lipid raft/caveolae and non-lipid raft localization of TβR-I and TβR-II in the plasma membrane of cells treated with or without cholesterol (50 μg/ml) using sucrose density gradient ultracentrifugation analysis. […]

Mv1Lu cells = assay: [Methyl-3H]thymidine incorporation (DNA synthesis), Mv1Lu cells; assay type: cell-based, mink; conditions: 18 hr
Method: (A, B, C, D, E, F) Cells were treated with 50 μg/ml cholesterol (A, B, C, D) and 50 μg/ml LDL (D) at 37° C. for 1 hr or with 1 μM fluvastatin or lovastatin (E) or several concentrations of fluvastatin (F) at 37° C. for 16 hr and then further incubated with increasing concentrations (as indicated) of TGF-β1 (A, B, C, E) or 50 pM TGF-β1 (D,F) for 2 hr. Northern blot analysis of PAI-1 and G3PDH was performed. A representative of a total of three analyses is shown (a). The relative intensities of the transcripts were quantified with a PhosphoImager. The ratio of the relative intensities of PAI-1 and G3PDH transcripts in cells treated without TGF-β1 and cholesterol, LDL or statins on the blot was taken as 1 fold or 100% of PAI-1 expression. The quantitative data from three independent analyses is shown (b). […] (G) Mv1Lu cells stably expressing a luciferase reporter gene driven by the PAI-1 promoter (MLECs-clone 32) were treated with increasing concentrations (as indicated) of cholesterol at 37 EC for 1 hr (a) or with 1 μM lovastatin at 37° C. for 16 hr (b) and then further incubated with 50 pM TGF-β for 7 hr. The luciferase activity in cells treated without cholesterol was taken as 100% (a). […] (H) Cells were incubated with 0.0625 and 0.125 pM TGF-β1 in the presence of increasing concentrations of cholesterol, as indicated. After 18 hr at 37° C., cell growth was determined by measurement of [^3H-methyl]thymidine incorporation into cellular DNA (a). The [^3H-methyl]thymidine incorporation in cells treated with vehicle only (T1); with TGF-β1 (T2); with cholesterol (T3); with cholesterol and TGF-β1 (T4) was measured. T1 was taken as 100%. The degree (%) of cholesterol-mediated reversal of TGF-β1 growth inhibition was estimated by the equation: % reversal=[1−(T3−T4/T1−T2)]×100 Cholesterol appeared to reverse TGF-β1 growth inhibition in a dose-dependent manner (b). The experiments were carried out in triplicate.
The growth of cholesterol-treated cells was determined by measurement of [methyl-^3H]thymidine incorporation into cellular DNA as described (30). Briefly, cells grown near confluence on 48-well clustered dishes were treated with several concentrations of cholesterol at 37° C. for 1 hr in serum-free DMEM. The final concentration of ethanol (the vehicle for cholesterol) in the medium was 0.2%. […] The [methyl-^3H]thymidine incorporation into cellular DNA was then determined by incubation of cells with [methyl-^3H]thymidine at 37° C. for 2 hr in DMEM containing 0.1% fetal calf serum. […]
Another prominent biological activity of TGF-β is growth inhibition of many different cell types. […] DNA synthesis was then determined by measurement of [^3H-methyl]thymidine incorporation into cellular DNA (FIG. 2Ha). […]

Compound: OC[C@H]1O[C@@H]2O[C@H]3[C@H](O)[C@@H](O)[C@@H](O[C@H]4[C@H](O)[C@@H](O)[C@@H](O[C@H]5[C@H](O)[C@@H](O)[C@@H](O[C@H]6[C@H](O)[C@@H](O)[C@@H](O[C@H]7[C@H](O)[C@@H](O)[C@@H](O[C@H]8[C@H](O)[C@@H](O)[C@@H](O[C@H]1[C@H](O)[C@H]2O)O[C@@H]8CO)O[C@@H]7CO)O[C@@H]6CO)O[C@@H]5CO)O[C@@H]4CO)O[C@@H]3CO [β-CD, β-cyclodextrin, reference compound]
- effect on the LDL- or cholesterol-induced increase of 125I-TGF-β1 binding to TβR-I (TβR-I and TβR-II): abolished
- effect on the cholesterol-enhanced TGF-β1-induced degradation of TβR-II (TβR-II): abolished

Compound: CC(C)CCC[C@@H](C)[C@H]1CC[C@H]2[C@@H]3CCC4=CC(=O)CC[C@]4(C)[C@H]3CC[C@]12C [4-cholesten-3-one, reference compound]
- effect on the LDL- or cholesterol-induced increase of 125I-TGF-β1 binding to TβR-I (TβR-I and TβR-II): abolished

Compound: TGF-β1: transforming growth factor-beta 1, 25-kDa dimeric cytokine; also used 125I-labelled
- inhibition of DNA synthesis (Mv1Lu cells; 0.0625 pM): ~30%
- inhibition of DNA synthesis (Mv1Lu cells; 0.125 pM): ~40%
- half-maximum concentrations of binding to TβR-I and TβR-II (TβR-I and TβR-II; Mv1Lu cells treated with and without cholesterol, 0° C. 2.5 hr): 50 to 80 pM
- Kd (TβR-I and TβR-II; stated identical to the half-maximum concentration, read-out: apparent Kd of binding to the TGF-β receptors): 0.05 to 0.08 nM
